Structures can show the parent of a compound that is named as a salt.

In the test the target is human tryptase. The test is described as follows: Inhibition of human tryptase (apparent dissociation constant, chromogenic substrate tos-Gly-Pro-arg-pNA). The format is biochemical. Particulars: apparent dissociation constant in presence of substrate; heparin 0.1-50 μg/ml; equilibrium conditions; read-out: Klapp. The text has this: The documented pathophysiological effects of mast cell tryptase are caused directly by the enzymatic activity of the protease. Accordingly, they are reduced or blocked by inhibitors which inhibit the enzymatic activity of the tryptase. A suitable measure for the affinity of a reversible inhibitor to the target protease is the equilibrium dissociation constant Ki of the enzyme-inhibitor complex. This Ki value can be determined via the effect of the inhibitor on the tryptase-induced cleavage of a chromogenic peptide-p-nitroanilide substrate or a fluorogenic peptide-aminomethylcoumarin substrate.
The dissociation constants for the tryptase-inhibitor complexes are determined under equilibrium conditions in accordance with the general proposals of Bieth (Bieth J G, Pathophysiological Interpretation of kinetic constants of protease inhibitors, Bull. Europ. Physiopath. Resp. 16:183-195, 1980) and the methods of Sommerhoff et al. (Sommerhoff C P et al., A Kazal-type inhibitor of human mast cell tryptase: Isolation from the medical leech Hirudo medicinalis, characterization, and sequence analysis, Biol. Chem. Hoppe-Seyler 375: 685-694, 1994).
Human tryptase is isolated from lung tissue or prepared recombinantly; the specific activity of the protease, determined by titration, is usually greater than 85% of the theoretical value. In the presence of heparin (0.1-50 μg/ml) for stabilizing the protease, constant amounts of the tryptase are incubated with increasing amounts of the inhibitors. After an equilibrium between the reaction partners has formed, the remaining enzyme activity after addition of the peptide-p-nitroanilide substrate tos-Gly-Pro-arg-pNA is determined and the cleavage of the latter is monitored at 405 nm for 3 min. Alternatively, the remaining enzymatic activity can also be determined using fluorogenic substrates. The apparent dissociation constants Kiapp (i.e. in the presence of substrate) are subsequently determined by adapting the enzyme rates to the general equation for reversible inhibitors (Morrison J F, Kinetics of the reversible inhibition of enzymecatalyzed reactions by tight-binding inhibitors, Biochim. Biophys. Acta 185, 269-286, 1969) using non-linear regression:
V1V0=1−{Et+It+Kiapp−[(Et+It+Kiapp)^2−4EtIt]^½}/2Et
V1 and V0 are the rates in the presence and absence, respectively, of the inhibitor, and Et and It are the tryptase and inhibitor concentrations, respectively.
The apparent dissociation constants determined for the compounds according to the invention are shown in Table A below, where the numbers of the compounds correspond to the numbers of the compounds in the examples.
Take `NCc1ccc(CNC(=O)N2CCN(C(=O)CN3CCC(=O)N(CC(=O)N4CCN(C(=O)NCc5ccc(CN)cc5)CC4)CCC3=O)CC2)cc1` [Compound 1, 1,5-bis-{2-[4-(4-Aminomethylbenzylaminocarbonyl)piperazin-1-yl]-2-oxoethyl}perhydro-1,5-diazocin-2,6-dione Dihydrochloride]: the Ki stood at 2.6 nM.

As for `NCc1ccc(CCC(=O)N2CCN(C(=O)CN3CCC(=O)N(CC(=O)N4CCN(C(=O)CCc5ccc(CN)cc5)CC4)CCC3=O)CC2)cc1` [Compound 2, 1,5-bis-{2-[4-(3-(4-aminomethylphenyl)proplonyl)piperazin-1-yl]-2-oxoethyl}perhydro-1,5-diazocin-2,6-dione Dihydrochloride], the Ki amounted to 1.2 nM.

For `NCc1cccc(CCC(=O)N2CCN(C(=O)CN3CCC(=O)N(CC(=O)N4CCN(C(=O)CCc5cccc(CN)c5)CC4)CCC3=O)CC2)c1` [Compound 3, 1,5-bis-{2-[4-(3-(3-aminomethylphenyl)proplonyl)piperazin-1-yl]-2-oxoethyl}perhydro-1,5-diazocin-2,6-dione Dihydrochloride], the Ki came out at 3.3 nM.

Turning to `NCc1ccc(OCC(=O)N2CCN(C(=O)CN3CCC(=O)N(CC(=O)N4CCN(C(=O)COc5ccc(CN)cc5)CC4)CCC3=O)CC2)cc1` [Compound 4, 1,5-bis-{2-[4-(2-(4-Aminomethylphenoxy)acetyl)perazin-1-yl]-2-oxoethyl}perhydro-1.5-diazocin-2,6-dione Dihydrochloride], the Ki is 0.8 nM.

Source of the values: patent US6673786B1, “Tryptase inhibitors” (Altana Pharma AG, priority 1999, dated 2004).
